Source: BindingDB's records for patent US20250313563 (The Broad Institute, 2025)
Where “and” joins values, the source holds several entries; their conditions need not be identical. Identical values can stand only once.

Columns and labels:
[1] = target: Glycogen synthase kinase-3 alpha (Homo sapiens, UniProt P49840); test: TR-FRET Assay
Outline: (§1)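 TR-FRET readout: streptavidin-d2 (40 nM in added detection mix) plus Tb-anti-pSer641 Ab (2 nM in mix). Steps were 30 min compound preincubation, kinase reaction, then EDTA stop.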

[2] = target: Glycogen synthase kinase-3 beta (Homo sapiens, UniProt P49841); test: TR-FRET Assay
Outline: as §1

Chain of Glycogen synthase kinase-3 beta (P49841 whole entry): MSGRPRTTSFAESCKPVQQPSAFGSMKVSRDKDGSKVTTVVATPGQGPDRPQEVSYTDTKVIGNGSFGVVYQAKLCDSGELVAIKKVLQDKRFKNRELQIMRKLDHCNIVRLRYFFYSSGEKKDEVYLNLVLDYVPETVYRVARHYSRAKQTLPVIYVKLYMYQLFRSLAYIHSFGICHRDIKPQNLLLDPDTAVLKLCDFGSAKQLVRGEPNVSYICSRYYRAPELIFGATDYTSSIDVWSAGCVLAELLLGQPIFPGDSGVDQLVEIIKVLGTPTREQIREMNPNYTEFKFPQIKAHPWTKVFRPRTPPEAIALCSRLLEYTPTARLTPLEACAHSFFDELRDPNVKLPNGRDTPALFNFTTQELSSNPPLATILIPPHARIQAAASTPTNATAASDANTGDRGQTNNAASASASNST
Chain of Glycogen synthase kinase-3 alpha (P49840 whole entry): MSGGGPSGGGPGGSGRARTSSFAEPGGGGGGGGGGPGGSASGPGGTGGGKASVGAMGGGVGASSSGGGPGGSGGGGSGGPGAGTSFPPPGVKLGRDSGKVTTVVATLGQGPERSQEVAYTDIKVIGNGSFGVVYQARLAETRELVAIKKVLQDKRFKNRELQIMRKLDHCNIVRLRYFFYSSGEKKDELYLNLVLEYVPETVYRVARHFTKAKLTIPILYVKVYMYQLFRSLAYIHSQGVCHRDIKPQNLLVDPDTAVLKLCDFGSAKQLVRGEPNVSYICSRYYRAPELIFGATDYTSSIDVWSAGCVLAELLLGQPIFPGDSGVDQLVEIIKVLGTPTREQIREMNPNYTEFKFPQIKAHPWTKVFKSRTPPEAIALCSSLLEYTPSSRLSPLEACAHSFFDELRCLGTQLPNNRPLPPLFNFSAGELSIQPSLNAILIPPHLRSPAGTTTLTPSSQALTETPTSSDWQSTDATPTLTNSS

Compound	IC50 [1]	IC50 [2]
CC[C@@]1(c2cccc(-c3ccnc4c(F)cccc34)c2)C2=CN=NC2NC2=C1C(=O)NC(C)(C)C2 (some centres undefined) [US20250313563, Compound 948828]	< 100 nM and 100 to 1000 nM	100 to 1000 nM and 1000 to 5000 nM
CCC1(c2cccc(OC)c2)C2=C(N=NC2)NC2=C1C(=O)NC(C)(C)C2 (centres undefined) [US20250313563, Compound 948296]	100 to 1000 nM	1000 to 5000 nM
CC[C@]1(c2cccc(-c3cnn(C)c3C#N)c2)C2=CN=NC2NC2=C1C(=O)NC(C)(C)C2 (some centres undefined) [US20250313563, Compound 948814]	> 5000 nM	> 5000 nM
CC[C@@]1(c2cccc(C3CC3)c2)C2=CN=NC2NC2=C1C(=O)NC(C)(C)C2 (some centres undefined) [US20250313563, Compound 950817]	> 5000 nM	> 5000 nM
CN1C[C@]2(C3=C(CC(C)(C)CC3=O)NC3N=NC(C4CC(F)(F)C4)=C32)c2ccccc21 (some centres undefined) [US20250313563, Compound 119047]	1000 to 5000 nM	100 to 1000 nM
CC[C@@]1(c2cccc(C(F)(F)F)c2)C2=CN=NC2NC2=C1C(=O)N(c1ccccc1)C2 (some centres undefined) [US20250313563, Compound 945377]	100 to 1000 nM	1000 to 5000 nM
CC(C)(C)CC1=C2C(N=N1)NC1=C(C(=O)CC(C)(C)C1)C21CCc2cccc(F)c21 (centres undefined) [US20250313563, Compound 789583]	100 to 1000 nM	100 to 1000 nM
CCC1(c2cccc(N3CCOCC3)c2)C2=CN=NC2NC2=C1C(=O)NC(C)(C)C2 (centres undefined) [US20250313563, Compound 945602]	1000 to 5000 nM	> 5000 nM
CC[C@]1(c2cccc(-c3ccnc(N(C)C)c3)c2)C2=C(CC(C)(C)CC2=O)NC2N=NC(C)=C21 (some centres undefined) [US20250313563, Compound 913048]	100 to 1000 nM	1000 to 5000 nM
CC[C@@]1(c2cccc(-c3cnn(-c4ccccn4)c3)c2)C2=CN=NC2NC2=C1C(=O)NC(C)(C)C2 (some centres undefined) [US20250313563, Compound 952566]	100 to 1000 nM	1000 to 5000 nM
CC1(C)CC(=O)C2=C(C1)NC1=C(CN=N1)C21CN(C2CCCCC2)C1 [US20250313563, Compound 929446]	1000 to 5000 nM	1000 to 5000 nM
CC(=O)N1CCCC2(CC1)C1=CN=NC1NC1=C2C(=O)CC(C)(C)C1 (centres undefined) [US20250313563, Compound 889575]	100 to 1000 nM	1000 to 5000 nM
CC[C@]1(c2cccc(-c3ccnn3C)c2)C2=C(CC(C)(C)CC2=O)NC2N=NC(C)=C21 (some centres undefined) [US20250313563, Compound 913046]	1000 to 5000 nM and > 5000 nM	> 5000 nM
CC1CC(=O)C2=C(C1)NC1=C(CN=N1)C21CCOCC1 (centres undefined) [US20250313563, Compound 884112]	100 to 1000 nM	100 to 1000 nM
CC[C@]1(c2cccc(-c3ccnc(C)c3)c2)C2=CN=NC2NC2=C1C(=O)[C@@H]1CC[C@H]2C1 (some centres undefined) [US20250313563, Compound 943921]	1000 to 5000 nM	> 5000 nM
CC[C@@]1(c2cccc(-c3cnn(C)c3C(F)(F)F)c2)C2=CN=NC2NC2=C1C(=O)NC(C)(C)C2 (some centres undefined) [US20250313563, Compound 948815]	< 100 nM and 100 to 1000 nM	100 to 1000 nM and > 5000 nM
CC[C@]1(c2cccc(C(F)(F)F)c2)C2=CN=NC2NC2=C1C(=O)N(c1cn(C)c(C)n1)CC2 (some centres undefined) [US20250313563, Compound 952478]	1000 to 5000 nM	> 5000 nM

Compound	IC50 [1]	IC50 [2]
CC[C@@]1(c2cccc(S(=O)(=O)CCOC)c2)C2=CN=NC2NC2=C1C(=O)CC(C)(C)C2 (some centres undefined) [US20250313563, Compound 943546]	1000 to 5000 nM	> 5000 nM
CC[C@@]1(c2cccc(S(=O)(=O)C(C)C)c2)C2=CN=NC2NC2=C1C(=O)NC(C)(C)C2 (some centres undefined) [US20250313563, Compound 947823]	100 to 1000 nM	1000 to 5000 nM
CC[C@]1(c2cccc(C3CN(C(C)=O)C3)c2)C2=CN=NC2NC2=C1C(=O)CC(C)(C)C2 (some centres undefined) [US20250313563, Compound 949131]	100 to 1000 nM	1000 to 5000 nM
CC[C@]1(c2ccccc2)C2=CN=NC2NC2=C1C(=O)C[C@]1(CCCOC1)C2 (some centres undefined) [US20250313563, Compound 816878]	100 to 1000 nM	1000 to 5000 nM
COc1cc(S(=O)(=O)N2CCC3(CC2)C2=C(N=NC2)NC2=C3C(=O)CC(C)(C)C2)ccc1F [US20250313563, Compound 947263]	< 100 nM and 100 to 1000 nM	< 100 nM and 1000 to 5000 nM
CC(C)(C)CC1=C2C(N=N1)NC1=C(C(=O)CC(C)(C)C1)C21CCc2ccc(F)cc21 (centres undefined) [US20250313563, Compound 784440]	100 to 1000 nM	< 100 nM
CC[C@@]1(c2cccc(-c3ccnc(C(F)(F)F)c3)c2)C2=CN=NC2NC2=C1C(=O)CC(C)(C)C2 (some centres undefined) [US20250313563, Compound 943989]	> 5000 nM	> 5000 nM
CC[C@]1(c2cccc(-c3c(Cl)cncc3Cl)c2)C2=CN=NC2NC2=C1C(=O)NC(C)(C)C2 (some centres undefined) [US20250313563, Compound 948824]	1000 to 5000 nM	> 5000 nM
CC[C@]1(c2cccc(-c3ccncc3F)c2)C2=C(CC(C)(C)NC2=O)NC2N=NC(C(F)(F)F)=C21 (some centres undefined) [US20250313563, Compound 948770]	100 to 1000 nM	100 to 1000 nM
CC1(C)CC(=O)C2=C(C1)NC1=C(CN=N1)[C@]21COC2(CN(C(=O)[C@H]3CC3(F)F)C2)C1 [US20250313563, Compound 948215]	< 100 nM and 100 to 1000 nM	< 100 nM and 100 to 1000 nM
CC(C)(C)CC1N=NC2=C1[C@](C)(c1cc(S(C)(=O)=O)ccc1F)C1=C(CC(C)(C)CC1=O)N2 (some centres undefined) [US20250313563, Compound 125976]	1000 to 5000 nM	100 to 1000 nM
CCC1(c2cccc(N(C)C(=O)Cc3ccccc3)c2)C2=CN=NC2NC2=C1C(=O)CC(C)(C)C2 (centres undefined) [US20250313563, Compound 912071]	< 100 nM	< 100 nM
CCOc1ccc(S(=O)(=O)N2CCC3(CC2)C2=C(N=NC2)NC2=C3C(=O)CC(C)(C)C2)cc1 [US20250313563, Compound 945670]	< 100 nM and 100 to 1000 nM	< 100 nM and 1000 to 5000 nM
CC[C@]1(c2cccc(C(F)(F)F)c2)C2=CN=NC2NC2=C1C(=O)N(CC(F)(F)F)CC2 (some centres undefined) [US20250313563, Compound 912205]	> 5000 nM	> 5000 nM
CC[C@@]1(c2cccc(-c3cnn(C)c3)c2)C2=C(CC(C)(C)NC2=O)NC2N=NC(C(F)F)=C21 (some centres undefined) [US20250313563, Compound 949919]	< 100 nM	< 100 nM and 100 to 1000 nM
CC[C@@]1(c2cccc(-c3ccnc4ccc(Cl)cc34)c2)C2=CN=NC2NC2=C1C(=O)N(C)C(C)(C)C2 (some centres undefined) [US20250313563, Compound 948517]	< 100 nM	< 100 nM

Second part, the molecule after the results:

IC50 [1]	IC50 [2]	Compound
< 100 nM	< 100 nM	CN(C)C(=O)c1ccc(S(=O)(=O)N2CCC3(CC2)C2=C(N=NC2)NC2=C3C(=O)CC(C)(C)C2)cc1 [US20250313563, Compound 945659]
< 100 nM	< 100 nM	CC[C@]1(c2cccc(-c3ccncc3C)c2)C2=CN=NC2NC2=C1C(=O)N[C@]1(CCOC1)C2 (some centres undefined) [US20250313563, Compound 948640]
< 100 nM	100 to 1000 nM	CCC1(c2cccc(-c3ccnc(C(C)O)c3)c2)C2=CN=NC2NC2=C1C(=O)CC(C)(C)C2 (centres undefined) [US20250313563, Compound 944029]
< 100 nM	< 100 nM	Cc1ccc(C(=O)N2CC3(C2)CC2(CO3)C3=C(N=NC3)NC3=C2C(=O)CC(C)(C)C3)cc1 (centres undefined) [US20250313563, Compound 947290]
< 100 nM	< 100 nM	CC[C@@]1(c2cccc(-c3ccncc3C)c2)C2=CN=NC2NC2=C1C(=O)N[C@@]1(CCOC1)C2 (some centres undefined) [US20250313563, Compound 948644]
< 100 nM	100 to 1000 nM	CCC1(c2cccc(C(F)(F)F)c2)C2=CN=NC2NC2=C1C(=O)N(c1cccc(C)c1)CC2 (centres undefined) [US20250313563, Compound 948052]
< 100 nM	100 to 1000 nM	CC[C@@]1(c2cccc(-c3cc(OC)ncc3F)c2)C2=CN=NC2NC2=C1C(=O)NC(C)(C)C2 (some centres undefined) [US20250313563, Compound 949109]
< 100 nM	< 100 nM and 100 to 1000 nM	CCC1(c2cccc(-c3ccncc3F)c2)C2=C(CC(C)(C)CC2=O)NC2N=NC(C(F)(F)F)=C21 (centres undefined) [US20250313563, Compound 945528]
< 100 nM	< 100 nM and 100 to 1000 nM	CC[C@@]1(c2cccc(-c3cn(C)nc3C)c2)C2=C(CC(C)(C)NC2=O)NC2N=NC(C)=C21 (some centres undefined) [US20250313563, Compound 946001]
< 100 nM	100 to 1000 nM	CC[C@@]1(c2cccc(N3CCCC3)c2)C2=CN=NC2NC2=C1C(=O)CC(C)(C)C2 (some centres undefined) [US20250313563, Compound 810510]
< 100 nM	100 to 1000 nM	CCC1(c2cccc(-c3ccncc3F)c2)C2=C(CC(C)(C)NC2=O)NC2N=NC(F)=C21 (centres undefined) [US20250313563, Compound 948999]
< 100 nM	< 100 nM and 100 to 1000 nM	CC[C@@]1(c2cccc(-c3cn(C)nc3C)c2)C2=CN=NC2NC2=C1C(=O)CC(C)(C)C2 (some centres undefined) [US20250313563, Compound 945546]
< 100 nM	< 100 nM	CC[C@@]1(c2cccc(-c3ccnn3C)c2)C2=CN=NC2NC2=C1C(=O)NC1(CCCC1)C2 (some centres undefined) [US20250313563, Compound 948018]
< 100 nM	100 to 1000 nM	CCC1(c2cccc(Oc3ncccn3)c2)C2=CN=NC2NC2=C1C(=O)NC(C)(C)C2 (centres undefined) [US20250313563, Compound 948764]
< 100 nM	< 100 nM and 100 to 1000 nM	CCC1(c2cccc(-c3cc(C)nn3C)c2)C2=C(CC(C)(C)CC2=O)NC2N=NC(C(F)(F)F)=C21 (centres undefined) [US20250313563, Compound 945532]
< 100 nM	100 to 1000 nM	COc1ccc(S(=O)(=O)N2CCC[C@@]3(CC2)C2=CN=NC2NC2=C3C(=O)CC(C)(C)C2)cc1 (some centres undefined) [US20250313563, Compound 932661]
< 100 nM	< 100 nM	CC1(C)CC(=O)C2=C(C1)NC1=C(CN=N1)C21CCN(S(=O)(=O)c2cnc3ccccn23)CC1 [US20250313563, Compound 947610]
< 100 nM	100 to 1000 nM	CC1(C)CC2=C(C(=O)C1F)[C@]1(CC[C@@H](C(F)(F)F)CC1)C1=CN=NC1N2 (some centres undefined) [US20250313563, Compound 917134]
< 100 nM	100 to 1000 nM	Cc1ccccc1C(=O)N1CC2(C1)CC1(CO2)C2=C(N=NC2)NC2=C1C(=O)CC(C)(C)C2 (centres undefined) [US20250313563, Compound 947287]
